# Experimental data taken from patent US10183936B2, “Hepatitis B core protein allosteric modulators” (priority 2014, dated 2019).
# What was measured:
# [1] = tested on: HBV viral production in AD38 cells; assay: Viral load production in AD38 cells by quantitative PCR of the HBV core sequence in supernatant; format: cell-based; details: Hepatitis B virus, 144 h; 10 μM compound, 6 days at 37° C., viral load in supernatant compared against DMSO control wells; read-out: AD38 Viral Load (CpAM/DMSO %) at 10 μM
# Method in brief: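 AD38 cells seeded at 50,000/well, treated 6 days at 37° C with compound added as 10× solution in 10% DMSO. HBV core sequence in clarified supernatant quantified by TaqMan qPCR against known standards; viral load compared with DMSO control wells.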
# AD38 cells = assay: Viability of AD38 cells (Promega CellTiter-Glo) at the end of compound treatment; format: cell-based; details: 10 μM compound, 6 days, luminescence normalized against DMSO control wells (controls being 100%)
# Method in brief: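 AD38 cells seeded at 50,000/well received compound from a 10× solution in 10% DMSO and were incubated 6 days at 37° C. Viability was then read by CellTiter-Glo luminescence in tetracycline-free medium with 2% FBS and 1% DMSO, normalized to DMSO control wells (100%) and reported as percent viability.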
Structure (SMILES),activity at 10 µM [1] [%],AD38 Viability Normalized Result (CPAM/DMSO %) at 10 μM (AD38 cells) [%]
O=C(NC(Cc1nnc[nH]1)c1ccccc1)c1ccc2c(c1)NC(=O)c1ccccc1S2 (stereo not drawn) [Compound 1552],64,93
CN1C(=O)c2ccccc2Sc2ccc(C(=O)NCc3cccnc3)cc21 [Compound 1553],86,93
O=C(NCCc1cccnc1)c1ccc2c(c1)NC(=O)c1c(F)cccc1S2 [Compound 1555],36,81
O=C1Nc2cc(S(=O)(=O)NCc3cncs3)ccc2Sc2ccccc21 [Compound 1556],67,86
O=C(NCCc1cnco1)c1cc2c(cc1F)Sc1ccccc1C(=O)N2 [Compound 1557],54,86
O=C(NCCc1cncs1)c1cc2c(cc1F)Sc1ccccc1C(=O)N2 [Compound 1558],51,88
O=C(NCCc1cnco1)c1ccc2c(c1)NC(=O)c1ccccc1N2Cc1ccccc1 [Compound 1559],68,92
Cc1c(C(=O)NCCc2cnco2)ccc2c1NC(=O)c1ccccc1S2 [Compound 1560],13,92
Cc1c(C(=O)NCCc2cncs2)ccc2c1NC(=O)c1ccccc1S2 [Compound 1561],8,118
O=C1Nc2c(cc(F)c(C(=O)NCCc3cncnc3)c2F)Sc2ccccc21 [Compound 1562],25,89
O=C1Nc2c(cc(F)c(C(=O)NCCc3cncs3)c2F)Sc2ccccc21 [Compound 1563],41,93
CCN1c2ccc(C(=O)NCc3cnco3)cc2NC(=O)c2ccccc21 [Compound 1564],10,119
CCN1c2ccc(C(=O)NCCc3cncnc3)cc2NC(=O)c2ccccc21 [Compound 1565],4,103
CCN1c2ccc(C(=O)NCCc3cncs3)cc2NC(=O)c2ccccc21 [Compound 1566],31,91
Cc1nnc(CCNC(=O)c2ccc3c(c2)NC(=O)c2ccccc2S3)s1 [Compound 1567],1,109
Nc1nnc(CCNC(=O)c2ccc3c(c2)NC(=O)c2ccccc2S3)s1 [Compound 1568],1,100
O=C(NCCc1cccnn1)c1ccc2c(c1)NC(=O)c1ccccc1S2 [Compound 1569],1,114
O=C(NCCc1nnc(-c2ccco2)[nH]1)c1ccc2c(c1)NC(=O)c1ccccc1S2 [Compound 1570],2,115
O=C(NCc1nncs1)c1ccc2c(c1)NC(=O)c1ccccc1S2 [Compound 1571],35,117
O=C(NCc1ccncc1)c1ccc2c(c1)NC(=O)c1ccccc1S2 [Compound 1572],5,116
CN1C(=O)c2ccccc2Sc2ccc(C(=O)NCc3cncs3)cc21 [Compound 1573],46,126
CN1C(=O)c2ccccc2Sc2ccc(C(=O)NCc3cncnc3)cc21 [Compound 1574],78,109
NC(=O)c1ccc2c(c1)NC(=O)c1ccccc1[S+]2[O-] (stereo not drawn) [Compound 1575],90,108
Cc1nnc(CNC(=O)c2ccc3c(c2)NC(=O)c2ccccc2S3)o1 [Compound 1578],33,100
